Assay results as given in publication PMC5467183 (ACS Medicinal Chemistry Letters, 2017).

Tests used:
Rat pharmacokinetics = format: in vivo
[1] = test system: CD86 surface expression on B cells; test: cells; details: Mus musculus, B-cell, read-out: CD86 IC50
physchem = details: pH 7.4, Sol. (kinetic solubility)
[2] = human hepatocytes
[3] = MDCK, A to B
[4] = rat hepatocytes
[5] = test system: collagen-induced arthritis (CIA) model in Lewis rat; details: 0.05 mg/kg daily, days 10–17

| Compound | HHep (projected hepatic clearance) [2] | Perm. [3] | RHep (projected hepatic clearance) [4] | also measured |
| --- | --- | --- | --- | --- |
| Cn1cc(-c2cccc(N3CCc4c(sc5c4CC(C)(C)C5)C3=O)c2CO)cc(Nc2ccncn2)c1=O [compound 7] | – | – | – | Rat CL (total clearance) (Rat pharmacokinetics; 1 mg/kg i.v.): 16 mL/min/kg; clearance (Rat pharmacokinetics; in vivo, iv, 1 mg/kg): 16 mL/min/kg; bioavailability (Rat pharmacokinetics; in vivo, po, 5 mg/kg, pH 3): 37% |
| Cn1cc(-c2cccc(N3CCc4cc(C(C)(C)C)ccc4C3=O)c2CO)cc(Nc2ccncn2)c1=O [compound 9] | – | – | – | IC50 [1]: < 100 nM; solubility kinetic (physchem): < 2 µM |
| CN1CCN(c2ccc(Nc3cc(-c4cccc(N5CCn6c(cc7c6CCCC7)C5=O)c4CO)cn(C)c3=O)nc2)CC1 [compound 17] | 10 | MOD (MOD: 1–10 (10^–6 cm/s)) | 12 | – |
| Cn1cc(-c2cccc(N3CCn4c(cc5c4CCCC5)C3=O)c2CO)cc(Nc2ccc(N3CCN(C4COC4)CC3)cn2)c1=O [compound 18] | < 6 | MOD (MOD: 1–10 (10^–6 cm/s)) | < 10 | – |
| CN1CCN(c2ccc(Nc3cc(-c4cc(F)cc(N5CCn6c(cc7c6CCCC7)C5=O)c4CO)cn(C)c3=O)nc2)CC1 [compound 19] | < 6.2 | MOD (MOD: 1–10 (10^–6 cm/s)) | < 10.1 | – |
| Cn1cc(-c2cc(F)cc(N3CCn4c(cc5c4CCCC5)C3=O)c2CO)cc(Nc2ccc(N3CCN(C4COC4)CC3)cn2)c1=O [compound 20] | < 6 | HIGH (HIGH: >10 (10^–6 cm/s)) | < 10 | – |
| C[C@@H]1C[C@H]2[C@@H]3CCC4=CC(=O)C=C[C@]4(C)[C@@]3(F)[C@@H](O)C[C@]2(C)[C@@]1(O)C(=O)CO [dexamethasone] | – | – | – | ankle diameter [5]: significantly (by ANOVA) reduced toward normal |
